Assays:
[1] = target: T1, Human recombinant TRPV1 (Homo sapiens, UniProt Q8NER1); assay: cell-based; type: cell-based; conditions: for IC50: read-out: TRPV1 IC50 for antagonism or desensitization; for EC50: read-out: TRPV1 Potency EC50
T1 construct: expressed in transfected cells; host or cells: HEK293 (TRPV1-HEK-293, gift from John Davis, GlaxoSmithKline)

[2] = target: T2, Rat recombinant TRPV2 (Rattus norvegicus, UniProt Q9WUD2); assay: cell-based; type: cell-based; conditions: for EC50: read-out: TRPV2 Potency EC50; for IC50: vs LPC 3μM, read-out: TRPV2 IC50 for antagonism or desensitization
T2 construct: expressed in transfected cells; host or cells: HEK293 (plasmid a gift from HB Bradshaw, Indiana University)
T2 sequence (Q9WUD2 1-761): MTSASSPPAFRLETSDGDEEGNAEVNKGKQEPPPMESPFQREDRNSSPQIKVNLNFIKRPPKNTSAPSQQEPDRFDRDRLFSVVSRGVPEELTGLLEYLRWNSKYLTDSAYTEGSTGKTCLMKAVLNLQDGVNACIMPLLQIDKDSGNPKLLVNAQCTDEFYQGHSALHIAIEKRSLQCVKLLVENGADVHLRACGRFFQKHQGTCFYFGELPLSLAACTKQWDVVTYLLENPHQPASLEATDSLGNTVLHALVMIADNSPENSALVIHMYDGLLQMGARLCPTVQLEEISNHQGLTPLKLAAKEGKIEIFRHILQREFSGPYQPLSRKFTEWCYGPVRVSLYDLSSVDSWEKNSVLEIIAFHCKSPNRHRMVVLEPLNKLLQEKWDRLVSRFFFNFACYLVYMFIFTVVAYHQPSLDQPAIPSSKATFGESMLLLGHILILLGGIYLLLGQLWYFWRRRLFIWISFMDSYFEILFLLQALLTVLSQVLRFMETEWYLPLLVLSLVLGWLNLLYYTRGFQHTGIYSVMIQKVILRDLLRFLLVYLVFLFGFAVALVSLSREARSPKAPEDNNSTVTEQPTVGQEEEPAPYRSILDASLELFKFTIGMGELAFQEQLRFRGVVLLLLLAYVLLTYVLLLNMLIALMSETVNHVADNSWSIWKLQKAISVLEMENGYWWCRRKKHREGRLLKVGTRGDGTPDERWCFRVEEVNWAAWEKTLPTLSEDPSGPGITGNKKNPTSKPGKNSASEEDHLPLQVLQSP

[3] = target: T3, A1 (h) (Homo sapiens, UniProt P30542); assay: CEREP panel; type: binding; conditions: 10 µM
T3 construct: CEREP
T3 sequence (P30542 1-326): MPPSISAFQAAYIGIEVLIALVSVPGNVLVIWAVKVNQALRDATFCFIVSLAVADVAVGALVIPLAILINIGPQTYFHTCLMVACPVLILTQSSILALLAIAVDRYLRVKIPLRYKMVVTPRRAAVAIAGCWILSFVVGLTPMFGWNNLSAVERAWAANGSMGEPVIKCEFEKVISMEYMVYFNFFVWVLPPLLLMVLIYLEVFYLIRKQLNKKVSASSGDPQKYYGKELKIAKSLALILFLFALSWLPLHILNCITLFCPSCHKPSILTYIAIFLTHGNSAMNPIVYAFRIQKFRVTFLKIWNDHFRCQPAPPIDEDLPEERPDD

[4] = target: T4, A3 (h) (Homo sapiens, UniProt P0DMS8); assay: CEREP panel; type: binding; conditions: 10 µM
T4 construct: CEREP
T4 sequence (P0DMS8 1-318): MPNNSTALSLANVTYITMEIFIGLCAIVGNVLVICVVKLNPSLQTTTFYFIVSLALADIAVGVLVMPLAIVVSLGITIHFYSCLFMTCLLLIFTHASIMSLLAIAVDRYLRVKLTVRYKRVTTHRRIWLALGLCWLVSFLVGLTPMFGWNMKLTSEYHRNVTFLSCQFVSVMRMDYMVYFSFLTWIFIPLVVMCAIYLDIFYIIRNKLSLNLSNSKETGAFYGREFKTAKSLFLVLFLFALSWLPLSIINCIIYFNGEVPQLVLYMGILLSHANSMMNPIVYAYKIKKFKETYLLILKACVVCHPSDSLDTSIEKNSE

[5] = target: T5, mu (MOP) (h) (Homo sapiens, UniProt P35372); assay: CEREP panel; type: binding; conditions: 10 µM
T5 construct: CEREP (contract assay)

[6] = system: Na+ channel (site 2); type: binding; conditions: 10 µM
[7] = target: T6, N muscle-type (h) (Homo sapiens, UniProt P02708+P07510+P11230+Q07001); assay: CEREP panel; type: binding; conditions: for % inhibition N muscle-type (h): 10 µM
T6 construct: CEREP (contract assay)

[8] = target: T7, norepinephrine transporter (h) (Homo sapiens, UniProt P23975); assay: biochemical; type: binding; conditions: 10 µM
T7 construct: CEREP (contract assay)

[9] = target: T8, PPARgamma (h) (Homo sapiens, UniProt P37231); assay: CEREP panel; type: binding; conditions: 10 µM
T8 construct: CEREP (contract assay)
T8 sequence (P37231 1-505): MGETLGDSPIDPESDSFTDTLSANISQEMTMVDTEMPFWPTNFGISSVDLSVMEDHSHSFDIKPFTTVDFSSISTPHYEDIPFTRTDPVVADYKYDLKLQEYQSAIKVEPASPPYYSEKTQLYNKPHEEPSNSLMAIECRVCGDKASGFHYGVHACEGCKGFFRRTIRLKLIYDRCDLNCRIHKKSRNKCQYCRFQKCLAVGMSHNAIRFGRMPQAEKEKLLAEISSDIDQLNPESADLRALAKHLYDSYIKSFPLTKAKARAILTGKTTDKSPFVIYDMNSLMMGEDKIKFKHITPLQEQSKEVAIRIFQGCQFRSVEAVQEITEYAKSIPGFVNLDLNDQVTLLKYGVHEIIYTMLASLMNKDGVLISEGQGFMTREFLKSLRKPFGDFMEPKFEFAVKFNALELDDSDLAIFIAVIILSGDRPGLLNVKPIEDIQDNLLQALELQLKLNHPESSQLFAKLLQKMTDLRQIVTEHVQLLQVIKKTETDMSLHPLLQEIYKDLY

[10] = target: T9, kappa (KOP) (Rattus norvegicus, UniProt P34975); assay: CEREP panel; type: binding; conditions: for % inhibition kappa (KOP): 10 µM
T9 construct: CEREP (contract assay)

[11] = 1 μM
[12] = 1 μM; remark: listed apart in the source
[13] = logD distribution coefficient; conditions: distribution coefficient
[14] = target: T10, mCB1R (Mus musculus, UniProt P47746); assay: biochemical; type: binding; conditions: for pKi ± SEM mCB1R: mouse brain membranes
T10 construct: from tissue; host or cells: brain of male C57BL/6J mice

[15] = i.v., mice; for C0: 1.0-2.0 mg/kg, extrapolated
[16] = target: T11, hCB1R (Homo sapiens, UniProt P21554); assay: cell-based
T11 construct: host or cells: CHO

T7 sequence (P23975 whole entry): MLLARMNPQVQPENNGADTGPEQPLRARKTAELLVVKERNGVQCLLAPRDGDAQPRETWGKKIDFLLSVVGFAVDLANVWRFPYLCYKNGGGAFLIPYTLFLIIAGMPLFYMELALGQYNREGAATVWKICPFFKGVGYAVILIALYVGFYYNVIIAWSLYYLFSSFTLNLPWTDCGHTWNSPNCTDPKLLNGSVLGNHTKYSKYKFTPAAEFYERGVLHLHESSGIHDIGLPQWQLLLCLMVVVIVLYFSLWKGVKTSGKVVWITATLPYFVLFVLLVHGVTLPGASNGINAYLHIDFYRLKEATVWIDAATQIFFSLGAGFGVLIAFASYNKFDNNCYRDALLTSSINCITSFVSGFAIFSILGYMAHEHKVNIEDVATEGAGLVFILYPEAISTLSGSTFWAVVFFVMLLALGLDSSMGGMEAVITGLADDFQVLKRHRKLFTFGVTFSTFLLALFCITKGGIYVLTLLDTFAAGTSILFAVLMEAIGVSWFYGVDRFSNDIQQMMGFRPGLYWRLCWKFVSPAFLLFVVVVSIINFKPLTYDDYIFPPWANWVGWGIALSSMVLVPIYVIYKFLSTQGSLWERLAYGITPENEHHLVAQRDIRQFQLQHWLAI
T10 sequence (P47746 whole entry): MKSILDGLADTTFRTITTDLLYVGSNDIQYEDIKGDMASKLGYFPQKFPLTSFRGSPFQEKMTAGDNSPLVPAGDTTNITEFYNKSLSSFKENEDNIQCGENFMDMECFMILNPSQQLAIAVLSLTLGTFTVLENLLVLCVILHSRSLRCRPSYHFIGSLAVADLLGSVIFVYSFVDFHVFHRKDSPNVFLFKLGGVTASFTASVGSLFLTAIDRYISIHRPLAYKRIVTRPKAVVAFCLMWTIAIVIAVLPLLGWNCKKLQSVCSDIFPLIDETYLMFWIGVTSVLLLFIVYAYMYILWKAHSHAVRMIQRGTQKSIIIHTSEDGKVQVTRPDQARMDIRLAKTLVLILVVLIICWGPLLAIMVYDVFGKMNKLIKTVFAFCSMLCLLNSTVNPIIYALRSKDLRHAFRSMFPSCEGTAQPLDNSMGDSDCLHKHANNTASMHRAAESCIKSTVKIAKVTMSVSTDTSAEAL
T9 sequence (P34975 whole entry): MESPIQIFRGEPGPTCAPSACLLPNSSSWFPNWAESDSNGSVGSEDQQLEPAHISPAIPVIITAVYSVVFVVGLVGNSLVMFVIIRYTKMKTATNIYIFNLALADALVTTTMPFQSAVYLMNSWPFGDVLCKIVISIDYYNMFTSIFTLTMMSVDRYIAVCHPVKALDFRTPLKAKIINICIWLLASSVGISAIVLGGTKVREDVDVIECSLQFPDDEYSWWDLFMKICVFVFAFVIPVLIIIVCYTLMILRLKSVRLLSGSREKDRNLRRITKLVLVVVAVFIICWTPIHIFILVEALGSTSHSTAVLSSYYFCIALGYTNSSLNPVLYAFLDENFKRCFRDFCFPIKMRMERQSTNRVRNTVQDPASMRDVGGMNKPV
T6 sequence (P02708 21-457): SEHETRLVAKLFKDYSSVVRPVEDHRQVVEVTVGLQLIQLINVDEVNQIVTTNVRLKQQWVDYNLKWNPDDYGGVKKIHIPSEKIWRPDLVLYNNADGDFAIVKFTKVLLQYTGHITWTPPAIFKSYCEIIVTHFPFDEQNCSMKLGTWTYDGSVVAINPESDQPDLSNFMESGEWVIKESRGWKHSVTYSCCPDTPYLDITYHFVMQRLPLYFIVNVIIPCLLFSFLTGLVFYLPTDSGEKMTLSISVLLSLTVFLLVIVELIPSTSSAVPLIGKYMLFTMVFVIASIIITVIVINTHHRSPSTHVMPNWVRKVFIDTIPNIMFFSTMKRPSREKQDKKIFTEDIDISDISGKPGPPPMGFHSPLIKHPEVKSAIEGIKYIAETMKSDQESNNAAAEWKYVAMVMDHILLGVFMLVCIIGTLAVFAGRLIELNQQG
T6 sequence (P11230 24-501): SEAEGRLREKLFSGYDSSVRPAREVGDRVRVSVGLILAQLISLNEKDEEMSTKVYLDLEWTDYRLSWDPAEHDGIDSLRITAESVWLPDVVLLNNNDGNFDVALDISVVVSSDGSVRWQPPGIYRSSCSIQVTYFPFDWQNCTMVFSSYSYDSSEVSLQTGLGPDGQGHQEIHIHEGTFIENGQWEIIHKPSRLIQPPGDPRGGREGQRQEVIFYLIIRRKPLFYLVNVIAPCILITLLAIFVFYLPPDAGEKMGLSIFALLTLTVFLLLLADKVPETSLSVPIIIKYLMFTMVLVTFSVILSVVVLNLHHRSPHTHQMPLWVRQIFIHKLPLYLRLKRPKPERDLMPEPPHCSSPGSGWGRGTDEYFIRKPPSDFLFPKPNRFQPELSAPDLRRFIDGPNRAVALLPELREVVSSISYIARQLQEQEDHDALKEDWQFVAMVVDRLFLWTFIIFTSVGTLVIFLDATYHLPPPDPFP
T6 sequence (Q07001 22-517): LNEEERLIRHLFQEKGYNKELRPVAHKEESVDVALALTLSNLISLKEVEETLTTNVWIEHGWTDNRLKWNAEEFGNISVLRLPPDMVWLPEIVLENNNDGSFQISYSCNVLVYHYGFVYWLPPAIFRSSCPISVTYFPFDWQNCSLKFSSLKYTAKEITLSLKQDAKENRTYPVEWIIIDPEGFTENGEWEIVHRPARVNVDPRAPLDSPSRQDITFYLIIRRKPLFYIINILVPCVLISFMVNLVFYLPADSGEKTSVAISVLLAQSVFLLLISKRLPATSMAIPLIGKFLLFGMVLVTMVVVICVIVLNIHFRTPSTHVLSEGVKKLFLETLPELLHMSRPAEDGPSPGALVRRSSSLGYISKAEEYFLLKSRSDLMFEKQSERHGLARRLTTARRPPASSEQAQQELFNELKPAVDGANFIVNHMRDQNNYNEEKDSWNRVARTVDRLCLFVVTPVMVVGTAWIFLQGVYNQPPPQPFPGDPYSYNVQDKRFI
T6 sequence (P07510 23-517): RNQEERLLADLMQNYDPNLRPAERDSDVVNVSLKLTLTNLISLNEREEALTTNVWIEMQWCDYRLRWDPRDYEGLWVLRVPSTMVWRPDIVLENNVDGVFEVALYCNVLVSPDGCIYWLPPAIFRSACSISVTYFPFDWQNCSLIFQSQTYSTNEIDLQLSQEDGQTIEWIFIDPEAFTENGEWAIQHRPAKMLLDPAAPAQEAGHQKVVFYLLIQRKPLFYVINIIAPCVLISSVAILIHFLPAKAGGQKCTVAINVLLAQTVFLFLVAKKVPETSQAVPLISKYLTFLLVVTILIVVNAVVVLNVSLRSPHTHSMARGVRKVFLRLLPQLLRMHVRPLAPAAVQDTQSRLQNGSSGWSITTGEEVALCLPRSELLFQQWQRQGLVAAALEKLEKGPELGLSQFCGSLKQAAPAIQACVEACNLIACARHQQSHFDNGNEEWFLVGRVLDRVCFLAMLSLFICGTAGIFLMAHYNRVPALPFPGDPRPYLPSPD
T1 sequence (Q8NER1 whole entry): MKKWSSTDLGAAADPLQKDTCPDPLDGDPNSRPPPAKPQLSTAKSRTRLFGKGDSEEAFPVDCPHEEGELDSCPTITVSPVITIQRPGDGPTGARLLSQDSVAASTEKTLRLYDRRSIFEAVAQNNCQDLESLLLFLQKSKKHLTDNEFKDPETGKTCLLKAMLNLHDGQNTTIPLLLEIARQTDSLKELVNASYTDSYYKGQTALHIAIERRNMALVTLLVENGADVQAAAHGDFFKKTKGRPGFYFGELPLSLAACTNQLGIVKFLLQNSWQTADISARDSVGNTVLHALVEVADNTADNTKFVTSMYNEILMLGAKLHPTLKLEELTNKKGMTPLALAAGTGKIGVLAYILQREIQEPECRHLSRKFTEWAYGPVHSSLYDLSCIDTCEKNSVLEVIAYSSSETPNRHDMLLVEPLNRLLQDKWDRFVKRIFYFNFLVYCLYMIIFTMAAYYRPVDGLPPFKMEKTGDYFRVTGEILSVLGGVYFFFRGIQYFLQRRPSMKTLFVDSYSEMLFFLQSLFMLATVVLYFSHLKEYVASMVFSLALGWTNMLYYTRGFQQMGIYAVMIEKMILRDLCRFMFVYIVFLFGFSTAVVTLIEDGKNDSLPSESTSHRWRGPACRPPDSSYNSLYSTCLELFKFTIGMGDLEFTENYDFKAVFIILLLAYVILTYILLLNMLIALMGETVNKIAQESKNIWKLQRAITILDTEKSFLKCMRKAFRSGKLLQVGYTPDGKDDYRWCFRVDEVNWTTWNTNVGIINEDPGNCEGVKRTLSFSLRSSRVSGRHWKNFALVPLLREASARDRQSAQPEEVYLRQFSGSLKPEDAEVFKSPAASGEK
T5 sequence (P35372 whole entry): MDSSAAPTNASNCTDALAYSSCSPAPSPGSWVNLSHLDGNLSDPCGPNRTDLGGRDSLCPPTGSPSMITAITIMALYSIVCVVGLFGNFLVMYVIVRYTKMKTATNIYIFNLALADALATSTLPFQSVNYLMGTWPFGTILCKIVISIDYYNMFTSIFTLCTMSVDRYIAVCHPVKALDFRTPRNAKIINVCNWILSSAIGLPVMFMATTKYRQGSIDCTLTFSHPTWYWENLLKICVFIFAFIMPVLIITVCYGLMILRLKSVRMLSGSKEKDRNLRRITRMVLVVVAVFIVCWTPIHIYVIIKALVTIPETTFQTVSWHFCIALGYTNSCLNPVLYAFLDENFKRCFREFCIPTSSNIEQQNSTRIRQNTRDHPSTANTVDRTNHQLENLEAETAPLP

| SMILES | TRPV1 Efficacy (% ionomycin 4μM) [1] [%] | IC50 [1] [µM] | TRPV2 Efficacy (% ionomycin 4μM) [2] [%] | IC50 [2] [µM] | % inhibition A1 (h) [3] [%] | % inhibition A3 (h) [4] [%] | % inhibition mu (MOP) (h) [5] [%] | % inhibition Na+ channel (site 2) [6] [%] | % inhibition N muscle-type (h) [7] [%] | % inhibition norepinephrine transporter (h) [8] [%] | % inhibition PPARgamma (h) [9] [%] | % inhibition kappa (KOP) [10] [%] | CL microsomes human [11] [µL/min/mg protein] | CL microsomes mouse [12] [µL/min/mg protein] | logD [13] | pKi ± SEM mCB1R [14] | AUCinf [15] [ng·h/mL] | AUCinf/dose [15] [kg·ng·h/mL/mg] | AUClast [15] [ng·h/mL] | CL [15] [mL/min/kg] | further results |
| --- | --- | --- | --- | --- | --- | --- | --- | --- | --- | --- | --- | --- | --- | --- | --- | --- | --- | --- | --- | --- | --- |
| Cc1c(C(=O)c2cccc3ccccc23)c2cccc3c2n1[C@H](CN1CCOCC1)CO3 [WIN55212-2] | 44.4 | 35.8 ± 2.2 | 17.0 | 62 | 10 | 84 | 21 | 68 | 7 | 33 | 39 | 79 | 194 | 745 | 3.67±0.03 |  |  |  |  |  | EC50 [1]: 19.2 µM; EC50 [2]: 14.8 µM |
| CCCn1c(C)c(C(=O)c2cccc3ccccc23)c2ccccc21 [JWH015] |  |  |  |  | 10 | 93 | 7 | 50 | -12 | 39 | 67 | 53 | 41 | 989 |  | 5.94 ± 0.15 | 174 | 158 | 163 | 105 | T1/2 [15]: 2.6 h; C0 [15]: 438 ng/mL |
| CCCCCCC(C)(C)c1ccc([C@@H]2C[C@H](O)CC[C@H]2CCCO)c(O)c1 [CP55940] |  |  |  |  |  |  |  | 71 |  |  |  |  |  |  |  |  |  |  |  |  | Ki [14]: 0.00158 µM; inhibition at 10 µM ([3]; read-out: % inhibition A1 (h)): 21%; inhibition at 10 µM ([4]; read-out: % inhibition A3 (h)): 98%; inhibition at 10 µM ([5]; read-out: % inhibition mu (MOP) (h)): 57%; inhibition at 10 µM [7]: -4%; inhibition at 10 µM ([8]; read-out: % inhibition norepinephrine transporter (h)): 89%; inhibition at 10 µM ([9]; read-out: % inhibition PPARgamma (h)): 85%; inhibition at 10 µM [10]: 74% |
| COc1ccc(C(=O)c2c(C)n(CCN3CCOCC3)c3cc(I)ccc23)cc1 [AM630] | < 10 | > 100 | < 10 | 35.6 | 28 | 76 | 21 |  | 5 | 38 | 99 | 57 | 82 | 468 | 3.82 | 5.6 ± 0.298 | 197 | 197 | 177 | 85 | T1/2 [15]: 2.9 h; C0 [15]: 69.8 ng/mL |
| CN1CCCC[C@H]1Cn1cc(C(=O)c2cc([N+](=O)[O-])ccc2I)c2ccccc21 [(S)-AM1241] | 12.0 | > 50 | 11.6 | 20.6 | 14 | 42 | 46 | 87 | 38 | 26 | 23 | 87 | 152 | 640 | 3.64 | 6.48 ± 0.08 | 276 | 145 | 269 | 115 | Emax ± SEM cAMP hCB1R [16]: 16 ± 2; pEC50 ± SEM cAMP hCB1R [16]: < 5; EC50 [1]: > 50 µM; EC50 [2]: 5 µM; T1/2 [15]: 1.4 h; C0 [15]: 413 ng/mL |

Reference: PMC5216056 (Nature Communications, 2017)
